Several values for one entry are separate records, joined by “and”; a condition that tells them apart may be missing. Identical values can stand only once. Inconclusive results and toxic doses are left out.
Tested on: BDF1 mice, intracerebral L1210 leukemia, survival T/C
Test: NCI In Vivo Anticancer Drug Screen. Data for tumor model L1210 Leukemia (intracerebral) in B6D2F1 (BDF1) mice
Conditions: higher = longer survival
Procedure, shortened: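 Antitumour effect is judged in mice with transplanted tumour by comparing survival of treated (T) against vehicle-dosed (C) groups as T/C.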

`CS(C)=O` was tested, and the T/C (endpoint: mean survival time, dose: 0.5 mg/kg/injection, schedule: Q#C X009 (adlb), vehicle: water) was 102 % of control, the T/C (endpoint: mean survival time, dose: 1.0 mg/kg/injection, schedule: Q#C X009 (adlb), vehicle: water) was 102 % of control and the T/C (endpoint: mean survival time, dose: 2.0 mg/kg/injection, schedule: Q#C X009 (adlb), vehicle: water) was 101 % of control. For the same molecule, the T/C (endpoint: mean survival time, dose: 4.0 mg/kg/injection, schedule: Q#C X009 (adlb), vehicle: water) was 101 % of control, the T/C (endpoint: mean survival time, dose: 8.0 mg/kg/injection, schedule: Q#C X009 (adlb), vehicle: water) was 98 % of control and the T/C (endpoint: mean survival time, dose: 10.0 mg/kg/injection, schedule: Q01DX001 (ip), vehicle: DMSO) was 110 % of control. The T/C (endpoint: mean survival time, dose: 25.0 mg/kg/injection, schedule: Q01DX001 (ip), vehicle: DMSO) was 101 % of control, the T/C (endpoint: mean survival time, dose: 35.0 mg/kg/injection, schedule: Q01DX001 (ip), vehicle: DMSO) was 101 % of control and the T/C (endpoint: mean survival time, dose: 50.0 mg/kg/injection, schedule: Q01DX001 (ip), vehicle: DMSO) was 101 % of control. For the same molecule, the T/C (endpoint: mean survival time, dose: 0.5 % drug in feed or water or air, schedule: Q#C X009 (oral), vehicle: other) was 102 % of control, the T/C (endpoint: mean survival time, dose: 1.0 % drug in feed or water or air, schedule: Q#C X009 (oral), vehicle: other) was 102 % of control and the T/C (endpoint: mean survival time, dose: 1.0 grams/kg/injection, schedule: Q01DX001 (ip), vehicle: Klucel (hydroxypropylcellulose) (HPC)) was 110 % of control. For the same molecule, the T/C (endpoint: mean survival time, dose: 2.0 % drug in feed or water or air, schedule: Q#C X009 (oral), vehicle: other) was 101 % of control, the T/C (endpoint: mean survival time, dose: 2.1 grams/kg/injection, schedule: Q01DX001 (ip), vehicle: Klucel (hydroxypropylcellulose) (HPC)) was 101 % of control and the T/C (endpoint: mean survival time, dose: 4.0 % drug in feed or water or air, schedule: Q#C X009 (oral), vehicle: other) was 101 % of control. The T/C (endpoint: mean survival time, dose: 8.0 % drug in feed or water or air, schedule: Q#C X009 (oral), vehicle: other) was 98 % of control, the T/C (endpoint: median survival time, dose: 1.0 mg/kg/injection, schedule: Q#C X009 (oral), vehicle: water) was 103 % of control and 118 % of control and the T/C (endpoint: median survival time, dose: 2.0 mg/kg/injection, schedule: Q#C X009 (oral), vehicle: water) was 101 % of control (2×) and 105 % of control. The T/C (endpoint: median survival time, dose: 4.0 mg/kg/injection, schedule: Q#C X009 (oral), vehicle: water) was 103 % of control and 107 % of control and 98 % of control and the T/C (endpoint: median survival time, dose: 8.0 mg/kg/injection, schedule: Q#C X009 (oral), vehicle: water) was 101 % of control and 83 % of control and 97 % of control.

For `CN(C)N=Nc1ccc(C(N)=O)cc1`, the T/C (endpoint: median survival time, dose: 10.0 mg/kg/injection, schedule: Q01DX009 (ip), vehicle: saline with Tween-80) was 98 % of control, the T/C (endpoint: median survival time, dose: 20.0 mg/kg/injection, schedule: Q01DX009 (ip), vehicle: saline with Tween-80) was 107 % of control and the T/C (endpoint: median survival time, dose: 40.0 mg/kg/injection, schedule: Q01DX009 (ip), vehicle: saline with Tween-80) was 109 % of control.

For `COCCOCCN1CCN(CCCN2c3ccccc3Sc3ccc(C(F)(F)F)cc32)CC1`, the T/C (endpoint: mean survival time, dose: 25.0 mg/kg/injection, schedule: Q04DX003 (ip), vehicle: saline) was 100 % of control, the T/C (endpoint: mean survival time, dose: 35.0 mg/kg/injection, schedule: Q04DX003 (ip), vehicle: saline) was 108 % of control and the T/C (endpoint: mean survival time, dose: 50.0 mg/kg/injection, schedule: Q04DX003 (ip), vehicle: saline) was 93 % of control.

With `O=NN(CCCl)C(=O)N[C@@H]1CCC[C@@H](O)C1` the T/C (endpoint: mean survival time, dose: 8.0 mg/kg/injection, schedule: Q01DX001 (ip), vehicle: saline with Tween-80) was 118 % of control, the T/C (endpoint: mean survival time, dose: 20.0 mg/kg/injection, schedule: Q01DX001 (ip), vehicle: saline with Tween-80) was 361 % of control and the T/C (endpoint: mean survival time, dose: 30.0 mg/kg/injection, schedule: Q01DX001 (ip), vehicle: saline with Tween-80) was 413 % of control. For the same molecule, the T/C (endpoint: mean survival time, dose: 44.0 mg/kg/injection, schedule: Q01DX001 (ip), vehicle: saline with Tween-80) was 260 % of control.

With `CCC(=O)NC1=C(N2CC2C)C(=O)C(NC(=O)CC)=C(N2CC2C)C1=O` (stereo unspecified) the T/C (endpoint: mean survival time, dose: 1.56 mg/kg/injection, schedule: Q01DX009 (ip), vehicle: Klucel (hydroxypropylcellulose) (HPC)) was 96 % of control, the T/C (endpoint: mean survival time, dose: 3.12 mg/kg/injection, schedule: Q01DX009 (ip), vehicle: Klucel (hydroxypropylcellulose) (HPC)) was 94 % of control and the T/C (endpoint: mean survival time, dose: 12.5 mg/kg/injection, schedule: Q01DX009 (ip), vehicle: Klucel (hydroxypropylcellulose) (HPC)) was 122 % of control and 335 % of control. For the same molecule, the T/C (endpoint: mean survival time, dose: 25.0 mg/kg/injection, schedule: Q01DX009 (ip), vehicle: Klucel (hydroxypropylcellulose) (HPC)) was 101 % of control and 107 % of control.

For `CS(=O)(=O)Nc1ccc(Nc2c3ccccc3nc3ccccc23)cc1`, the T/C (endpoint: mean survival time, dose: 10.0 mg/kg/injection, schedule: Q01DX009 (ip), vehicle: saline) was 104 % of control, the T/C (endpoint: mean survival time, dose: 10.0 mg/kg/injection, schedule: Q01DX009 (sc), vehicle: saline) was 92 % of control and the T/C (endpoint: mean survival time, dose: 20.0 mg/kg/injection, schedule: Q01DX009 (ip), vehicle: saline) was 101 % of control. For the same molecule, the T/C (endpoint: mean survival time, dose: 20.0 mg/kg/injection, schedule: Q01DX009 (sc), vehicle: saline) was 96 % of control, the T/C (endpoint: mean survival time, dose: 40.0 mg/kg/injection, schedule: Q01DX009 (ip), vehicle: saline) was 96 % of control and the T/C (endpoint: mean survival time, dose: 40.0 mg/kg/injection, schedule: Q01DX009 (sc), vehicle: saline) was 90 % of control. For the same molecule, the T/C (endpoint: mean survival time, dose: 80.0 mg/kg/injection, schedule: Q01DX009 (sc), vehicle: saline) was 96 % of control.

From PubChem BioAssay AID252 (DTP/NCI, 2004)
